The target in one test is T1, LcpRr (Rhodococcus rhodochrous, UniProt A0A165QBG6).
T1 sequence (A0A165QBG6 31-408): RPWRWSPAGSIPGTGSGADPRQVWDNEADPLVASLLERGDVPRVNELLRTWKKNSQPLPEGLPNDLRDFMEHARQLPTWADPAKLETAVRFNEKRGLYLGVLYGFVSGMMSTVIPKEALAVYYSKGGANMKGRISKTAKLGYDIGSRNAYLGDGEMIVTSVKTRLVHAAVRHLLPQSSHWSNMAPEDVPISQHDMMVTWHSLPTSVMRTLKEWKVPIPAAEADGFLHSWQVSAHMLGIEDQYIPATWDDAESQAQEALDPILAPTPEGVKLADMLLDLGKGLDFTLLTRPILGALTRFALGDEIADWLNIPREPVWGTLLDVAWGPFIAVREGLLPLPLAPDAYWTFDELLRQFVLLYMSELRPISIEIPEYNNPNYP
The experiment in a line: HPLC product assay (C35 peak), polyisoprene latex. The conditions noted are these: read-out: % inhibition at 1 mM.

A further test concerns the target T2, RoxAXsp (Xanthomonas sp. 35Y, UniProt Q7X0P3).
T2 construct: gene roxA; purified as described previously; c-type dihaem
The experiment in a line: HPLC of polyisoprene cleavage products. Format: biochemical. The conditions noted are these: poly(cis-1,4-isoprene) latex, oxygen; 23 °C.

Molecules are shown by their SMILES.

T2 sequence (Q7X0P3 entry or part of it): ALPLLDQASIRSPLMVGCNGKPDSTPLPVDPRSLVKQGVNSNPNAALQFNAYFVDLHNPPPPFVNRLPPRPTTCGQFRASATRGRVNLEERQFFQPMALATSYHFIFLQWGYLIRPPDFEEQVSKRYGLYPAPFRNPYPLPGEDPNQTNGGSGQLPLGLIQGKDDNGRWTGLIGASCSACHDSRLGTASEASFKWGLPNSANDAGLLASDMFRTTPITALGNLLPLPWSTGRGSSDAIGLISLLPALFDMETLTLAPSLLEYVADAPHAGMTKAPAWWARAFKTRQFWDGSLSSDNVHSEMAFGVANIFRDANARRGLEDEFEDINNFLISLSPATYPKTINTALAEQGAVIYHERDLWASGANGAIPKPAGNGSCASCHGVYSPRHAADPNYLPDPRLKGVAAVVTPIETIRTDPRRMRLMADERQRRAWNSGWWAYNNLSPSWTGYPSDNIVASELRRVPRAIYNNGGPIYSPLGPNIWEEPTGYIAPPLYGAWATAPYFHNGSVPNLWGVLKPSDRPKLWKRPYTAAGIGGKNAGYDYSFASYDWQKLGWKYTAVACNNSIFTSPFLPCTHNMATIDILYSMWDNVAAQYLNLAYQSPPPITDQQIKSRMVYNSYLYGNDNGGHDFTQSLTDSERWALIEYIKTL

What is called inhibition is the drop in the measured response relative to a control, in per cent. `CCN(CC)C(=S)S` [diethyl dithiocarbamate]: on LcpRr, the inhibition at 1000 µM worked out at 82%.
For `CC(=O)CCC=C(C)CCC=C(C)CCC=O` [ODTD, 12-oxo-4,8-dimethyl-trideca-4,8-diene-1-al], the “HPLC of polyisoprene cleavage products” value on RoxAXsp is listed as “ODTD was the main cleavage product of RoxAXsp”.

These data come from article PMC4877957 (BMC Microbiology, 2016).
